Source: US6673782B2, “Treatment of systemic lupus erythematosis” (Wisconsin Alumni Research Foundation, priority 1999, dated 2004)
“Also recorded” adds a separate entry of the source.

Key:
MRL/MPJ-Fas<lpr>mice [1] = assay: Mortality of MRL/MPJ-Fas mice on 0.02% calcium diet; assay type: in vivo; details: 0.02% Ca + 100 ng/mouse/day; between 18 and 20 weeks of age (no control deaths)
Method: (§1) MRL/MPJ-Fasmice were raised on a chow diet. At 5-6 weeks of age 13 mice were switched to a purified diet containing 0.02% calcium and 14 mice were put on a diet containing 0.02% calcium with 100 ng of 1,25(OH)2D3 per/mouse/day. The mice were checked weekly for physical symptoms of lupus. The symptoms were given numerical scores starting at 0.5=small sore on skin; 1=swollen lymph nodes under front legs; 2=swollen lymph nodes under front legs and neck; 3=swollen lymph nodes under front legs, neck, and back legs (severity scores used in figure on the next page).
(§2) FIG. 3A and B and Tables 3 and 4 disclose data points obtained in this study. At 12 weeks of age the 0.02% Ca+100 ng of 1,25(OH)2D3 group began to show SLE symptoms. It was not until 14 weeks of age that the control (0.02% Ca) mice had the same percentage severity as the mice dosed with 1,25(OH)2D3. Between 18 and 20 weeks of age, about 21.4% of the 0.02% Ca+100 ng 1,25(OH)2D3 mice died. However, none of the controls had reached motality. The experiment was ended at 20 weeks of age.

MRL/MPJ mice [2] = assay: SLE disease severity (physical symptom) scores in MRL mice on 0.87% calcium diet; assay type: in vivo; set-up: key to Mean scores of disease severity: 0.5 = small sores … 3 = swollen nodes front legs, neck and back legs; details: for Mean scores of disease severity: 0.87% Ca, score 0.5-3
Method: MRL mice are the model for the human disease lupus. See Brians, et al., J. Exp. Med. 148:1198-1215, 1978 and P. L. Cohen and R. A. Eisenburg, Annu. Rev. Immunol. 9:243-69, 1991.
(§3) When the MRL mice in this study were 4 weeks old, they were started on one of three experimental diets. All mice were fed the experimental diet which contains 0.87% Ca. Control mice are fed the experimental diet with no 1,25(OH)2D3; one group of 7 mice were fed the experimental diet with 50 ng/mouse/day of 1,25(OH)2D3; and another group of 8 mice were fed the experimental diet with 200 ng/mouse/day of 1,25(OH)2D3. The mice were checked weekly for physical symptoms. In control-fed MRL mice, SLE disease symptoms spontaneously develop after 5 weeks. Symptoms were given numbers from 0.5 to 3, with 0.5 being small sores; 1, swollen lymph nodes under front legs; 2, swollen lymph nodes under front legs and on neck; 3, swollen lymph nodes under front legs, neck and back legs (severity scores for table).
(§4) The diet was then replaced with the same diet providing a dose level of 100 ng/mouse/day.
(§5) The first physical symptoms of lupus began to develop in two female control-fed mice at 14 weeks of age. […] At 17 weeks of age the control mice started to die. Their proteinuria levels were elevated above 300 mg/dl. […] FIG. 1 compares the percentage of mice with elevated proteinuria with the age of the mouse. FIG. 2 compares the severity of the SLE with symptoms the age of the mice.

[3] = Serum calcium, hypercalcemia and death in MRL mice on 0.87% calcium diet; assay type: in vivo; details: for Serum calcium: 0.87% Ca diet (controls 8 mg %Ca)
Method: as §3, §4, §5
Serum calcium values were measured and found to be at 8 mg %Ca for the controls, and 12 mg %Ca for both the 50 ng and 100 ng treated groups. The 1,25(OH)2D3 treatment diet was removed at 17 weeks of age, and all mice were fed the 0.87% calcium control diet for the remainder of the experiment.

MRL/MPJ-Fas<lpr>mice [4] = assay: Proteinuria in MRL/MPJ-Fas mice on 0.02% calcium diet; assay type: in vivo; details: 0.02% Ca diet + 100 ng/mouse/day
MRL/MPJ-Fas<lpr>mice [5] = assay: Mean symptom scores of lupus in MRL/MPJ-Fas mice on 0.02% calcium diet; assay type: in vivo; details: for Mean symptom scores on 0.02% Ca: 0.02% Ca diet + 100 ng/mouse/day, score 0.5-3
Method: as §1, §2

MRL/MPJ mice [6] = assay: Proteinuria in MRL mice on 0.87% calcium diet; assay type: in vivo; details: for % of Mice with Proteinuria at 100 mg/dL and Greater: 0.87% Ca
Method: as §3
Proteinuria levels were checked weekly started at 16 weeks of age.
as §5

MRL/I mice = details: Lemire et al., Autoimmunity 1992; cited from earlier work

C=C1/C(=C\C=C2/CCC[C@]3(C)[C@@H]([C@H](C)CCCC(C)(C)O)CC[C@@H]23)C[C@@H](O)C[C@@H]1O [1,25(OH)2D3, 1α,25-dihydroxyvitamin D3]
Mice died (MRL/MPJ-Fas<lpr>mice [1]): about 21.4% | Mean scores of disease severity (MRL/MPJ mice [2]; 50 ng/mouse/day until 17 weeks, age 18 weeks): 0.21 | Mean scores of disease severity (MRL/MPJ mice [2]; 50 ng/mouse/day until 17 weeks, age 19 weeks): 0.12 | Mean scores of disease severity (MRL/MPJ mice [2]; 50 ng/mouse/day until 17 weeks, age 20 weeks): 0.33 | Mean scores of disease severity (MRL/MPJ mice [2]; 50 ng/mouse/day until 17 weeks, age 21 weeks): 0.11 | Mean scores of disease severity (MRL/MPJ mice [2]; 50 ng/mouse/day until 17 weeks, age 22 weeks): 0.11 | Mean scores of disease severity (MRL/MPJ mice [2]; 50 ng/mouse/day until 17 weeks, age 23 weeks): 0.11 | Mean scores of disease severity (MRL/MPJ mice [2]; 50 ng/mouse/day until 17 weeks, age 24 weeks): 0.11 | Mean scores of disease severity (MRL/MPJ mice [2]; 50 ng/mouse/day, age 0-13 weeks): 0.00 | Mean scores of disease severity (MRL/MPJ mice [2]; 50 ng/mouse/day, age 14 weeks): 0.00 | Mean scores of disease severity (MRL/MPJ mice [2]; 50 ng/mouse/day, age 15 weeks): 0.00 | Mean scores of disease severity (MRL/MPJ mice [2]; 50 ng/mouse/day, age 16 weeks): 0.21 | Mean scores of disease severity (MRL/MPJ mice [2]; 50 ng/mouse/day, age 17 weeks): 0.21 | Mean scores of disease severity (MRL/MPJ mice [2]; 200 ng then 100 ng/mouse/day until 17 weeks, age 18 weeks): 0.07 | Mean scores of disease severity (MRL/MPJ mice [2]; 200 ng then 100 ng/mouse/day until 17 weeks, age 19 weeks): 0.08 | Mean scores of disease severity (MRL/MPJ mice [2]; 200 ng then 100 ng/mouse/day until 17 weeks, age 20 weeks): 0.00 | Mean scores of disease severity (MRL/MPJ mice [2]; 200 ng then 100 ng/mouse/day until 17 weeks, age 21 weeks): 0.00 | Mean scores of disease severity (MRL/MPJ mice [2]; 200 ng then 100 ng/mouse/day until 17 weeks, age 22 weeks): 0.00 | Mean scores of disease severity (MRL/MPJ mice [2]; 200 ng then 100 ng/mouse/day until 17 weeks, age 23 weeks): 0.00 | Mean scores of disease severity (MRL/MPJ mice [2]; 200 ng then 100 ng/mouse/day until 17 weeks, age 24 weeks): 0.00 | Mean scores of disease severity (MRL/MPJ mice [2]; 200 ng then 100 ng/mouse/day, age 14 weeks): 0.00 | Mean scores of disease severity (MRL/MPJ mice [2]; 200 ng then 100 ng/mouse/day, age 15 weeks): 0.00 | Mean scores of disease severity (MRL/MPJ mice [2]; 200 ng then 100 ng/mouse/day, age 16 weeks): 0.00 | Mean scores of disease severity (MRL/MPJ mice [2]; 200 ng then 100 ng/mouse/day, age 17 weeks): 0.00 | Mean scores of disease severity (MRL/MPJ mice [2]; 200 ng then (from 10 weeks) 100 ng/mouse/day, age 0-13 weeks): 0.00 | Effect on SLE symptoms (MRL/MPJ mice [2]; mice on a 0.87% calcium diet): prevented or slowed SLE symptoms | Disease severity scores versus controls (MRL/MPJ mice [2]; treated mice, 0.87% Ca diet): much less for the treated mice than for controls | Physical symptoms of lupus (MRL/MPJ mice [2]; treated mice, 0.87% Ca diet, at 14 weeks of age (two control mice symptomatic)): None of the 1,25(OH)2D3-treated mice showed symptoms | Serum calcium ([3]; 50 ng treated group): 12 mg %Ca | Serum calcium ([3]; 100 ng treated group): 12 mg %Ca | Symptoms of hypercalcemia ([3]; 200 ng/mouse/day, 0.87% Ca diet, at 10 weeks of age): began to show symptoms of hypercalcemia | Death of treated animals ([3]; 0.87% Ca diet, at 17 weeks of age): began to die of what we believe to be hypercalcemia | % Proteinurea scores above 100 mg/dl on 0.02% Ca (MRL/MPJ-Fas<lpr>mice [4]; age 10 weeks): 0% | % Proteinurea scores above 100 mg/dl on 0.02% Ca (MRL/MPJ-Fas<lpr>mice [4]; age 11 weeks): 0% | % Proteinurea scores above 100 mg/dl on 0.02% Ca (MRL/MPJ-Fas<lpr>mice [4]; age 12 weeks): 7.14% | % Proteinurea scores above 100 mg/dl on 0.02% Ca (MRL/MPJ-Fas<lpr>mice [4]; age 13 weeks): 14.28% | % Proteinurea scores above 100 mg/dl on 0.02% Ca (MRL/MPJ-Fas<lpr>mice [4]; age 14 weeks): 14.28% | % Proteinurea scores above 100 mg/dl on 0.02% Ca (MRL/MPJ-Fas<lpr>mice [4]; age 15 weeks): 35.7% | % Proteinurea scores above 100 mg/dl on 0.02% Ca (MRL/MPJ-Fas<lpr>mice [4]; age 16 weeks): 28.57% | % Proteinurea scores above 100 mg/dl on 0.02% Ca (MRL/MPJ-Fas<lpr>mice [4]; age 17 weeks): 28.57% | % Proteinurea scores above 100 mg/dl on 0.02% Ca (MRL/MPJ-Fas<lpr>mice [4]; age 18 weeks): 42.85% | % Proteinurea scores above 100 mg/dl on 0.02% Ca (MRL/MPJ-Fas<lpr>mice [4]; age 19 weeks): 28.57% | % Proteinurea scores above 100 mg/dl on 0.02% Ca (MRL/MPJ-Fas<lpr>mice [4]; age 20 weeks): 28.57% | Age at which group began to show SLE symptoms (MRL/MPJ-Fas<lpr>mice [5]; 0.02% Ca + 100 ng/mouse/day): 12 weeks of age | Mean symptom scores on 0.02% Ca (MRL/MPJ-Fas<lpr>mice [5]; age 10 weeks): 0 | Mean symptom scores on 0.02% Ca (MRL/MPJ-Fas<lpr>mice [5]; age 11 weeks): 0.214 ± 0.410 | Mean symptom scores on 0.02% Ca (MRL/MPJ-Fas<lpr>mice [5]; age 12 weeks): 1.642 ± 0.410 | Mean symptom scores on 0.02% Ca (MRL/MPJ-Fas<lpr>mice [5]; age 13 weeks): 2.14 ± 0.515 | Mean symptom scores on 0.02% Ca (MRL/MPJ-Fas<lpr>mice [5]; age 14 weeks): 2.714 ± 0.45 | Mean symptom scores on 0.02% Ca (MRL/MPJ-Fas<lpr>mice [5]; age 15 weeks): 2.785 ± 0.41 | Mean symptom scores on 0.02% Ca (MRL/MPJ-Fas<lpr>mice [5]; age 16 weeks): 2.85 ± 0.349 | Mean symptom scores on 0.02% Ca (MRL/MPJ-Fas<lpr>mice [5]; age 17 weeks): 2.85 ± 0.349 | Mean symptom scores on 0.02% Ca (MRL/MPJ-Fas<lpr>mice [5]; age 18 weeks): 2.80 ± 0.46 | Mean symptom scores on 0.02% Ca (MRL/MPJ-Fas<lpr>mice [5]; age 19 weeks): 2.77 ± 0.49 | Mean symptom scores on 0.02% Ca (MRL/MPJ-Fas<lpr>mice [5]; age 20 weeks): 2.95 ± 0.33 | Disease progression (MRL/MPJ-Fas<lpr>mice [5]; low calcium diet and treatment): disease progression occurring more quickly | Effect on SLE symptoms (MRL/MPJ-Fas<lpr>mice [5]; mice on a 0.02% (low) calcium diet): not effective; also recorded: did not inhibit these symptoms | % of Mice with Proteinuria at 100 mg/dL and Greater (MRL/MPJ mice [6]; 50 ng/mouse/day in diet, treatment removed at 17 weeks, age 18 weeks): 0% | % of Mice with Proteinuria at 100 mg/dL and Greater (MRL/MPJ mice [6]; 50 ng/mouse/day in diet, treatment removed at 17 weeks, age 19-25 weeks): 0% | % of Mice with Proteinuria at 100 mg/dL and Greater (MRL/MPJ mice [6]; 50 ng/mouse/day in diet, age 0-15 weeks): 0% | % of Mice with Proteinuria at 100 mg/dL and Greater (MRL/MPJ mice [6]; 50 ng/mouse/day in diet, age 16-17 weeks): 0% | % of Mice with Proteinuria at 100 mg/dL and Greater (MRL/MPJ mice [6]; 200 ng then 100 ng/mouse/day in diet, treatment removed at 17 weeks, age 18 weeks): 0% | % of Mice with Proteinuria at 100 mg/dL and Greater (MRL/MPJ mice [6]; 200 ng then 100 ng/mouse/day in diet, treatment removed at 17 weeks, age 19-25 weeks): 0% | % of Mice with Proteinuria at 100 mg/dL and Greater (MRL/MPJ mice [6]; 200 ng then 100 ng/mouse/day in diet, age 16-17 weeks): 0% | % of Mice with Proteinuria at 100 mg/dL and Greater (MRL/MPJ mice [6]; 200 ng then (from 10 weeks) 100 ng/mouse/day in diet, age 0-15 weeks): 0% | Development of proteinuria of 100 mg/dL or greater (MRL/MPJ mice [6]; all treated mice, 0.87% Ca diet, whole experiment): none of the 1,25(OH)2D3 treated mice developed proteinuria of 100 mg/dL or greater | Effect on symptoms of experimental murine lupus (MRL/I mice): attenuation by 1,25-dihydroxyvitamin D3 of some symptoms
